Tests used:
Type in all cases: in vivo, BALB/c mice
[1] = test system: mouse bowel cancer cell line CT26 cells; assay: Antitumor effect of combined administration in CT26 tumor-bearing mice (Example 1); settings: FIG. 1
Description: Six-week-old female BALB/c mice (72 mice) were purchased from Japan SLC, Inc., conditioned and raised for 5 days in University of Shizuoka, Experimental Animal Center, and then used for experiments.
Hair on a back part and ventral parts of the BALB/c mouse was shaved, and 1×10^6 mouse bowel cancer cell line CT26 cells (ATCCs) were subcutaneously transplanted in each of the left and right ventral parts (day 0). Five days after the transplantation, the longer diameter (mm) and the shorter diameter (mm) of the tumor were measured using a digital caliper (A&D Company, Limited), and a tumor volume was calculated. […]
An average of the tumor volumes on the left and the right was calculated for each individual, and on the basis of the thus-obtained value, the mice were divided into eight groups (nine mice in each group) in such a manner that the variations in tumor volume between individuals in the groups were the same. […]
The evaluation item was an average of the tumor volumes on the left and the right in each individual. From day 5, the longer diameter (mm) and the shorter diameter (mm) of the tumor were measured at an interval of one day or two days using a digital caliper. […] An average of the tumor volumes on the left and the right was calculated for each individual. […]

[2] = test system: mouse bowel cancer cell line CT26 cells; assay: Antitumor effect of combined administration in CT26 tumor-bearing mice (Example 2); settings: STX-1159 40 mg/kg p.o. days 6, 8 and 10 + PD-1 Ab 50 μg/mouse i.p. days 8, 10 and 13; compared with either agent alone; FIG. 2
Description: (§1) Six-week-old female BALB/c mice were purchased from Japan SLC, Inc., conditioned and raised for about a week in University of Shizuoka, Experimental Animal Center, and then used for experiments.
(§2) Hair on a back part and ventral parts of the BALB/c mouse was shaved, and 1×10^6 mouse bowel cancer cell line CT26 cells (ATCCs) were subcutaneously transplanted in each of the left and right ventral parts (day 0). Six days after the transplantation, the longer diameter (mm) and the shorter diameter (mm) of the tumor were measured using a digital caliper (A&D Company, Limited), and a tumor volume was calculated. The expression for calculation of the tumor volume was as follows: tumor volume (mm^3)=0.5×(longer diameter mm)×(shorter diameter mm)^2. An average of the tumor volumes on the left and the right was calculated for each individual, and on the basis of the thus-obtained value, the mice were divided into groups in such a manner that the variations in tumor volume between individuals in the groups were the same.
STX-1159 was orally administered at 40 mg/kg three times every other day. […]
The evaluation item was an individual tumor volume. From day 6, the longer diameter (mm) and the shorter diameter (mm) of the tumor were measured at an interval of one to four days using a digital caliper. […]

[3] = test system: mouse fibrosarcoma CMS5a cells; assay: Antitumor effect of combined administration in CMS5a tumor-bearing mice (Example 3); settings: STX-1159 40 mg/kg p.o. days 5 to 9 + PD-1 Ab 200 μg/mouse i.p. days 12, 14 and 16; t-test versus control; FIG. 3
Description: as §1
as §2, with “fibrosarcoma CMS5a” for “bowel cancer cell line CT26”, “cells” for “cells (ATCCs)”, “Five” for “Six”
STX-1159 was orally administered at 40 mg/kg continuously for five days. […]
The evaluation item was an individual tumor volume. From day 5, the longer diameter (mm) and the shorter diameter (mm) of the tumor were measured at an interval of one or two days using a digital caliper. […]

## O=C(Nc1nnc(-c2ccco2)o1)c1cc(-c2ccccc2)nc2ccc(OC(F)(F)F)cc12 [STX-1159, N-[5-(2-furyl)-1,3,4-oxadiazol-2-yl]-2-phenyl-6-trifluoromethoxy-4-quinoline carboxamide]
[1]; STX-1159 40 mg/kg p.o. days 5 to 9 in advance + PD-1 Ab 50 μg/mouse i.p. days 12, 14 and 16, compared with simultaneous and later administration groups
  antitumor effect (tumor volume): much higher antitumor effect
[1]; simultaneous: STX-1159 40 mg/kg p.o. days 12 to 16 + PD-1 Ab 50 μg/mouse i.p. days 12, 14 and 16, compared with each single-agent group
  antitumor effect (tumor volume): antitumor effect was lower
[2]
  antitumor effect (tumor volume): much higher antitumor effect
[3]
  tumor shrinkage (tumor volume) versus control group: showed more significant tumor shrinkage over the control group

Reference: US20220218693A1, “IMMUNE CHECKPOINT INHIBITOR COMBINATION THERAPY USING QUINOLINE CARBOXAMIDE DERIVATIVE” (KABUSHIKI KAISHA YAKULT HONSHA, priority 2019, published 2022)
